Data: patent EP1574201B1, “Composition comprising benzyloxyethanol as preservative” (KAO CORPORATION, priority 2004, dated 2005)

Columns and labels:
[1] = system: Alcaligenes faecalis IFO 13111; assay: MIC by agar plate method; format: cell-based; conditions: SCD agar medium
Method: (§1) The minimum inhibitory concentration (MIC) of benzyloxyethanol against bacteria and fungi was determined by means of the agar plate method. There were employed the following microbial strains: Staphylococcus aureus IFO 13276, Escherichia coli IFO 3972, Pseudomonas aeruginosa IFO 13275, and Alcaligenes faecalis IFO 13111, and the following fungal strains: Penicillium citrinum IFO 6352 , Cladosporium cladosporoides IFO 6348 and Aspergillus niger IFO 6341. The media used in the test […] agar medium (product of Wako Pure Chemical Industries, Ltd.) for the bacteria, and GP agar medium (product of Wako Pure Chemical Industries, Ltd.) for the fungi, to which various concentration of benzyloxyethanol was added.

[2] = system: Aspergillus niger IFO 6341; assay: MIC by agar plate method; format: cell-based; conditions: GP agar medium
Method: as §1

[3] = system: Staphylococcus aureus IFO 13276; assay: MIC by agar plate method; format: cell-based; conditions: SCD agar medium
Method: as §1

[4] = system: Penicillium citrinum IFO 6352; assay: MIC by agar plate method; format: cell-based; conditions: GP agar medium
Method: as §1

[5] = system: Pseudomonas aeruginosa IFO 13275; assay: MIC by agar plate method; format: cell-based; conditions: SCD agar medium
Method: as §1

[6] = system: Cladosporium cladosporoides IFO 6348; assay: MIC by agar plate method; format: cell-based; conditions: GP agar medium
Method: as §1

[7] = system: Escherichia coli IFO 3972; assay: MIC by agar plate method; format: cell-based; conditions: SCD agar medium
Method: as §1

[8] = guinea pig, in vivo
Method: Guinea pig maximization test was performed. Specifically, groups of guinea pigs, each group consisting of 10 guinea pigs, were employed, and each animal was given interedermal injection of.0.3(W/V)% benzyloxyethanol and 30(W/V)% benzyloxyethanol was applied occlusive patch. Subsequently, challenge was performed at a concentration of benzyloxyethanol at which no irritation occurs.

[9] = system: Staphylococcus aureus IFO 13276, Escherichia coli IFO 3972, and Pseudomonas aeruginosa IFO 13275; assay: Preservative efficacy test (reduction in count of viable bacteria); format: cell-based; conditions: BOE and methyl paraben in combination versus each alone
Method: Preservative efficacy test was performed at 30°C by use of the bacteria written below and a sample (50 g) having a composition shown in the below-described Table 2, and the preservative efficacy was evaluated on the reduction in count of viable bacteria. The following test microorganisms are challenged: Staphylococcus aureus IFO 13276, Escherichia coli IFO 3972, and Pseudomonas aeruginosa IFO 13275.

Row | SMILES | MIC (%) [1] [%] | MIC (%) [2] [%] | MIC (%) [3] [%] | MIC (%) [4] [%] | MIC (%) [5] [%] | MIC (%) [6] [%] | MIC (%) [7] [%] | positive rate [8] [%] | available amounts for the required reduction were reduced by [9] [%]
1 | OCCOCc1ccccc1 [benzyloxyethanol] | 0.8 | 0.8 | 1.4 | 0.8 | 1.0 | 0.2 | 0.8 | 0 | 40
2 | COC(=O)c1ccc(O)cc1 [methyl paraben, reference compound] |  |  |  |  |  |  |  |  | 75
